Experimental data taken from patent US10172858B2, “Combination pharmaceutical compositions and uses thereof” (Intellikine LLC, priority 2011, dated 2019).
Like-named read-outs stand apart in the source and are kept apart here.

Legend:
PC3 = PC3 tumor cell line proliferation assay; format: cell-based; conditions: Homo sapiens, PC-3; for IC50: Table 2, in vitro IC50; for EC50: Table 1
mTORC = mTORC (Homo sapiens (Human), UniProt P42345); assay: mTORC in vitro IC50 (Table 2); format: biochemical
PI3K γ = PI3K γ (Homo sapiens (Human), UniProt P48736); assay: PI3K γ kinase assay; format: biochemical
Sequence of PI3K γ (P48736 whole entry, species assumed): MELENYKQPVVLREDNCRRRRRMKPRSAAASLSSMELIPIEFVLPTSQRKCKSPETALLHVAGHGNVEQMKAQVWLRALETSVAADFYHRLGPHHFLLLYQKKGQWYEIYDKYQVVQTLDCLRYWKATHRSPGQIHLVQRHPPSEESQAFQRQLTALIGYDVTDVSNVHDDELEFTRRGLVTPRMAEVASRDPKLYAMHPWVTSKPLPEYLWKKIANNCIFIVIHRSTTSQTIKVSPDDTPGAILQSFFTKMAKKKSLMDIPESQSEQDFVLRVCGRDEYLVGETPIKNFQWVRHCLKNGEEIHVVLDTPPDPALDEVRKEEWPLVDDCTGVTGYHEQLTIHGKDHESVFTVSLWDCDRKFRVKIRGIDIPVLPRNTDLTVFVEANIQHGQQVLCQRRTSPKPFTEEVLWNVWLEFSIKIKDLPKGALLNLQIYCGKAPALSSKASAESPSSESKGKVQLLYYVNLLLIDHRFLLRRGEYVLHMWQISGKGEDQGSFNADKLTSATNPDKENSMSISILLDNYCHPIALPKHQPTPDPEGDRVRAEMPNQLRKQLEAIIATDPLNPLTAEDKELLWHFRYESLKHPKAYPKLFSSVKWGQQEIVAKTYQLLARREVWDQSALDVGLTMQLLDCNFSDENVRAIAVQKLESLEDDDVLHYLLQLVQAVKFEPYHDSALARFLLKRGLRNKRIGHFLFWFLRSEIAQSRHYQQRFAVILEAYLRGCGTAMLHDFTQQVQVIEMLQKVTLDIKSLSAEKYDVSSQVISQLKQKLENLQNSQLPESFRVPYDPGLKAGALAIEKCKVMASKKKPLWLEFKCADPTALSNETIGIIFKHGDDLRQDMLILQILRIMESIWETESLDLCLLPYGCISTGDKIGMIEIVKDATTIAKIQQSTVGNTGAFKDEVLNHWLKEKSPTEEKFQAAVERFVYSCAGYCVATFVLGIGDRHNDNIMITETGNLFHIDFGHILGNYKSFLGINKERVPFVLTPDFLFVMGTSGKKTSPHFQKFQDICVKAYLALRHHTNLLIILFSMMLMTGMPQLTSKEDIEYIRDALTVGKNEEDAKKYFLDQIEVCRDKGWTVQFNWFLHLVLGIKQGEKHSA

PI3K δ = PI3K δ (Homo sapiens (Human), UniProt O00329); assay: PI3K δ kinase assay; format: biochemical
PI3K α = PI3K α (Homo sapiens (Human), UniProt P42336); assay: PI3K α kinase assay; format: biochemical
PI3K β = PI3K β (Homo sapiens (Human), UniProt P42338); assay: PI3K β kinase assay; format: biochemical; conditions: Table 2
Sequence of PI3K β (P42338 whole entry, species assumed): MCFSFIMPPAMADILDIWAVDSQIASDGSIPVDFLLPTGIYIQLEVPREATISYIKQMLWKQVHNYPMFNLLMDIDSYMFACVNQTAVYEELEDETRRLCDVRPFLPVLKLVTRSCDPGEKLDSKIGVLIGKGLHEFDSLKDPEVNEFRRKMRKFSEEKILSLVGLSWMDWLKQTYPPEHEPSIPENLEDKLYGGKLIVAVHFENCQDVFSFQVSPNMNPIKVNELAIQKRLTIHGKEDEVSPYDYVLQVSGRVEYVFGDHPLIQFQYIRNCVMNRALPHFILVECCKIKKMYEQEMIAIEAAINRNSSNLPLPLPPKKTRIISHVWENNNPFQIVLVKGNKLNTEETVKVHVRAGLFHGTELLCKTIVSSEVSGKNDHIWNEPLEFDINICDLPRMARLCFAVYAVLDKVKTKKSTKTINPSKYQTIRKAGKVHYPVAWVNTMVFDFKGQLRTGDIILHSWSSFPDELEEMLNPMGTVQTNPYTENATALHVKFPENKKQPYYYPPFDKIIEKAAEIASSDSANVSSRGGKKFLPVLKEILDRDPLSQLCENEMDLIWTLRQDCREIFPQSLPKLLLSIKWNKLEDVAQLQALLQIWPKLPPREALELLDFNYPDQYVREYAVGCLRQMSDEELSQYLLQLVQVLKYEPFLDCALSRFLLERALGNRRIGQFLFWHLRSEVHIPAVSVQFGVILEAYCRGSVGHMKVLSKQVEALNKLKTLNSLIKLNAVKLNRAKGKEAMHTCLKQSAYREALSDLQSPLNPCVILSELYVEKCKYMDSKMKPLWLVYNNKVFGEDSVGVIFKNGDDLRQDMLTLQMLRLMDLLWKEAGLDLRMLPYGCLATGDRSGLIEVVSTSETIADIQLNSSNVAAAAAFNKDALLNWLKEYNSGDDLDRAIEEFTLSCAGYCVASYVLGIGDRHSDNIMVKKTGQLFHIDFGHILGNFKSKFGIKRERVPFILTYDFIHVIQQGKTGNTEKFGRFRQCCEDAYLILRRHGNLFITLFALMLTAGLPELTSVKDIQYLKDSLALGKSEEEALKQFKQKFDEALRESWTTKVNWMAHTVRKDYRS
Sequence of PI3K β (P27986 whole entry partner, species assumed): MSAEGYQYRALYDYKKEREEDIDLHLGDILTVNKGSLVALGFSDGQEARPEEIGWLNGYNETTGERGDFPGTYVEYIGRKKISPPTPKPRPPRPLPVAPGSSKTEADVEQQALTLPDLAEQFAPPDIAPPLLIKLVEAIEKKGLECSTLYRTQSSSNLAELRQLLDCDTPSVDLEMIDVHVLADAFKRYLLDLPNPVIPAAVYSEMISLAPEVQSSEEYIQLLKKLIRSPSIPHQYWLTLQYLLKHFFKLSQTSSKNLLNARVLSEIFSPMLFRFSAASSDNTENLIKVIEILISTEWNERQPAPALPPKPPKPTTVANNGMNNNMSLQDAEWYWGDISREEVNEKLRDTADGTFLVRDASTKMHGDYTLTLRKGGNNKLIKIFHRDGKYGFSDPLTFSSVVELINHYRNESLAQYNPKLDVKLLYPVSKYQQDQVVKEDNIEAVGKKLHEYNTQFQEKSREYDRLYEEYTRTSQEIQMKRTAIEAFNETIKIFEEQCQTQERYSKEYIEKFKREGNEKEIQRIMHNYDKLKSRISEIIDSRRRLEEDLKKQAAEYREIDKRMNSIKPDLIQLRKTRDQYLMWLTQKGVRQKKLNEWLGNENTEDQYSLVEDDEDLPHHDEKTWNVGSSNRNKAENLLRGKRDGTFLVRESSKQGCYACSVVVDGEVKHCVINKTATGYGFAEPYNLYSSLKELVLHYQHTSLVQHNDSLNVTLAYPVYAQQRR

Sequence of mTORC (P42345 1360-2549): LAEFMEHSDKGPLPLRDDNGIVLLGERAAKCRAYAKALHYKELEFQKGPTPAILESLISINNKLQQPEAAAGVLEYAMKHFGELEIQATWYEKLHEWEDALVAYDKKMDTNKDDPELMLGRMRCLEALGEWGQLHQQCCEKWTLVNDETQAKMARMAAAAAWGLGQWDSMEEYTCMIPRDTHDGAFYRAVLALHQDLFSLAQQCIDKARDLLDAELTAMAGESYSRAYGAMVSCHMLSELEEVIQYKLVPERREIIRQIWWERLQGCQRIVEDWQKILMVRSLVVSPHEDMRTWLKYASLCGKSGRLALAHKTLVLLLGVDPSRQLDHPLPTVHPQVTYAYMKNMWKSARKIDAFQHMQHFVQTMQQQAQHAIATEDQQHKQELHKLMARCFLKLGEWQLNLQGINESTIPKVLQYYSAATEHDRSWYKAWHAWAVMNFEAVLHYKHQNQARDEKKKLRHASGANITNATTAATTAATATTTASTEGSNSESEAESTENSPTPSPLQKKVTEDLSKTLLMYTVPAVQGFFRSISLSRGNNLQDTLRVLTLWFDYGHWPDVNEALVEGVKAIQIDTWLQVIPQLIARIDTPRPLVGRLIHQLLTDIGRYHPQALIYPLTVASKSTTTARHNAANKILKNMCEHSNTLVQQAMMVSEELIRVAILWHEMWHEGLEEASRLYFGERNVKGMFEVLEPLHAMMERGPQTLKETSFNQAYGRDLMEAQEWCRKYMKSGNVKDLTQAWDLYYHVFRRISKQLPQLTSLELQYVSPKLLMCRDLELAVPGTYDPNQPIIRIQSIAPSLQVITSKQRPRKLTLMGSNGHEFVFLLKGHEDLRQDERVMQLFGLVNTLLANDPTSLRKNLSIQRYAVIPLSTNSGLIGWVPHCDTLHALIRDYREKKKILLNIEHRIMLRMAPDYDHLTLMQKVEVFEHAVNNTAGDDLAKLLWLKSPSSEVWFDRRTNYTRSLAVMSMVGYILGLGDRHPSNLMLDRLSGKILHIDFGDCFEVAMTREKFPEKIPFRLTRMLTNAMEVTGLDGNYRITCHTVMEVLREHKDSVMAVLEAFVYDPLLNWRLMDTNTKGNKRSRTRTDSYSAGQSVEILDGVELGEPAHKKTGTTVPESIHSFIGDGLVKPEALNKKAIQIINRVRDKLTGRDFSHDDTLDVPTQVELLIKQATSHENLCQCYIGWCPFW

| IC50 (PC3) | Structure (SMILES) | IC50 (mTORC) | IC50 (PI3K γ; Table 2) | IC50 (PI3K δ; Table 2) | IC50 (PI3K α; Table 2) | IC50 (PI3K β) | also measured |
| --- | --- | --- | --- | --- | --- | --- | --- |
| > 500 nM | CC(C)n1nc(-c2cc3ccccc3n2C)c2c(N)ncnc21 [Compound 6] |  |  |  |  |  |  |
|  | Nc1ncnc2c1c(-c1cc3cc(O)ccc3[nH]1)nn2C1CC(N2CCOCC2)C1 (stereo not shown) [Compound 49] | < 10 nM | < 500 nM | < 500 nM |  | > 500 nM | IC50 (PI3K α): > 500 nM |
|  | Nc1ncnc2c1c(-c1cc3cccc(O)c3[nH]1)nn2C1CCOCC1 [Compound 62] | < 5 nM | > 500 nM | < 100 nM | > 500 nM | > 500 nM |  |
| > 500 nM | CC(C)n1nc(-c2cc3ccc(O)cc3[nH]2)c2c(N)ncnc21 [Compound 21] |  |  |  |  |  |  |
|  | CC(C)n1nc(-c2ccc3onc(N)c3c2)c2c(N)ncnc21 [Compound 10] |  |  |  |  |  | EC50 (PC3): > 10000 nM |
| > 500 nM | COc1cc(Cl)c2[nH]c(-c3nn(C(C)C)c4ncnc(N)c34)cc2c1 [Compound 13] |  |  |  |  |  |  |
|  | Nc1ncnc2c1c(-c1cc3cc(O)ccc3[nH]1)nn2CC(=O)N1CCOCC1 [Compound 34] | > 500 nM | > 500 nM | > 500 nM | > 500 nM |  |  |
|  | CC(C)N1CCC(n2nc(-c3cc4cc(O)ccc4[nH]3)c3c(N)ncnc32)CC1 [Compound 55] | < 500 nM | > 500 nM |  | > 500 nM | > 500 nM |  |
|  | CC(C)n1nc(-c2ccc3nc(N)oc3c2)c2c(N)ncnc21 [Compound 4] |  |  |  |  |  | EC50 (PC3): < 10000 nM |
| > 500 nM | CC(C)n1nc(-c2cc3c(Cl)cccc3[nH]2)c2c(N)ncnc21 [Compound 9] |  |  |  |  |  |  |
|  | CC(=O)N1CCC(n2nc(-c3ccc4oc(N)nc4c3)c3c(N)ncnc32)CC1 [Compound 7] |  |  |  |  |  | EC50 (PC3): < 10000 nM |
| < 50 nM | CC(C)n1nc(-c2cc3cc(O)cc(Cl)c3[nH]2)c2c(N)ncnc21 [Compound 15] |  |  |  |  |  |  |
| < 500 nM | Nc1ncnc2c1c(-c1cc3cc(O)ccc3[nH]1)nn2C1CCCCC1 [Compound 26] |  |  |  |  |  |  |
|  | CN1CCN(C2CC(n3nc(-c4cc5cc(O)ccc5[nH]4)c4c(N)ncnc43)C2)CC1 (stereo not shown) [Compound 52] | < 500 nM | > 500 nM | < 500 nM |  | > 500 nM | IC50 (PI3K α): > 500 nM |
|  | CC(=O)Nc1noc2cc(-c3nn(C(C)C)c4ncnc(N)c34)ccc12 [Compound 11] |  |  |  |  |  | EC50 (PC3): > 10000 nM |
|  | Nc1ncnc2c1c(-c1cc3c(Cl)cccc3[nH]1)nn2C1CCOCC1 [Compound 48] | < 50 nM | > 500 nM | > 500 nM | > 500 nM | > 500 nM |  |
|  | Nc1nc2cc(-c3nn(C4CCOCC4)c4ncnc(N)c34)ccc2o1 [Compound 5] |  |  |  |  |  | EC50 (PC3): < 100 nM |
|  | Nc1ncnc2c1c(-c1cc3cc(O)ccc3[nH]1)nn2C1CC(=O)C1 [Compound 53] | < 100 nM | > 500 nM |  | > 500 nM | > 500 nM |  |
|  | Nc1ncnc2c1c(-c1cc3cc(O)ccc3[nH]1)nn2C1CCC(N2CCOCC2)CC1 (stereo not shown) [Compound 57] | < 25 nM | > 500 nM |  | > 500 nM | > 500 nM |  |
|  | CC(=O)N1CCC(n2nc(-c3cc4c(Cl)ccc(O)c4[nH]3)c3c(N)ncnc32)CC1 [Compound 69] | < 5 nM | > 500 nM |  | > 500 nM | > 500 nM | IC50 (PI3K δ): < 500 nM |
|  | COc1cccc2cc(-c3nn(C4CCN(C(=O)C5CC5)CC4)c4ncnc(N)c34)[nH]c12 [Compound 66] | > 500 nM | > 500 nM | > 500 nM | > 500 nM | > 500 nM |  |
|  | COc1ccc(Cl)c2cc(-c3nn(C4CCOCC4)c4ncnc(N)c34)[nH]c12 [Compound 61] | < 25 nM | > 500 nM | > 500 nM | > 500 nM | > 500 nM |  |
| < 500 nM | CC(C)n1nc(-c2cc3cc(O)cc(F)c3[nH]2)c2c(N)ncnc21 [Compound 16] |  |  |  |  |  |  |
|  | CC(C)n1nc(-c2cc3cc(O)ccc3[nH]2)c2c(N)nccc21 [Compound 45] | > 500 nM |  |  |  |  |  |
|  | Nc1nc2cc(-c3nn(C4CCC(N5CCOCC5)CC4)c4ncnc(N)c34)ccc2o1 (stereo not shown) [Compound 6] |  |  |  |  |  | EC50 (PC3): < 1000 nM |

| IC50 (PC3) | Structure (SMILES) | IC50 (mTORC) | IC50 (PI3K γ; Table 2) | IC50 (PI3K δ; Table 2) | IC50 (PI3K α; Table 2) | IC50 (PI3K β) | also measured |
| --- | --- | --- | --- | --- | --- | --- | --- |
|  | COc1cc2cc(-c3nn(C(C)C)c4ncnc(N)c34)[nH]c2cc1Cl [Compound 29] | > 500 nM |  |  |  |  |  |
|  | COc1ccc2cc(-c3nn(C4CCOCC4)c4ncnc(N)c34)[nH]c2c1 [Compound 59] | > 500 nM | > 500 nM |  | > 500 nM | > 500 nM |  |
|  | Nc1ncnc2c1c(-c1cc3ccc(O)cc3[nH]1)nn2C1CCOCC1 [Compound 60] | < 100 nM | < 100 nM |  | > 500 nM | > 500 nM |  |
|  | Nc1ncnc2c1c(-c1cc3cc(O)ccc3[nH]1)nn2C1CC(O)C1 (stereo not shown) [Compound 54] | < 25 nM | > 500 nM |  | > 500 nM | > 500 nM |  |
|  | CNC(=O)CCn1nc(-c2cc3cc(O)ccc3[nH]2)c2c(N)ncnc21 [Compound 43] | > 500 nM |  | > 500 nM | > 500 nM | > 500 nM |  |
| > 500 nM | CC(C)n1nc(-c2cc3cc(Cl)ccc3[nH]2)c2c(N)ncnc21 [Compound 17] |  |  |  |  |  |  |
| > 500 nM | CC(C)n1nc(-c2cc3ccccc3[nH]2)c2c(N)ncnc21 [Compound 7] |  |  |  |  |  |  |
| > 500 nM | CC(C)n1nc(-c2cc3ccc(C#N)cc3[nH]2)c2c(N)ncnc21 [Compound 24] |  |  |  |  |  |  |
|  | CN1CCN(C2CCC(n3nc(-c4cc5cc(O)ccc5[nH]4)c4c(N)ncnc43)CC2)CC1 (stereo not shown) [Compound 58] | > 500 nM | > 500 nM |  |  | > 500 nM | IC50 (PI3K α): > 500 nM |
|  | CNC(=O)Cn1nc(-c2cc3cc(O)ccc3[nH]2)c2c(N)ncnc21 [Compound 35] | > 500 nM | > 500 nM | > 500 nM | > 500 nM |  |  |
| > 500 nM | COc1ccc2cc(-c3nn(C(C)C)c4ncnc(N)c34)[nH]c2c1 [Compound 8] |  |  |  |  |  |  |
|  | CC(=O)N1CCC(n2nc(-c3cc4cc(O)cc(Cl)c4[nH]3)c3c(N)ncnc32)CC1 [Compound 70] | < 5 nM | < 100 nM | < 25 nM | < 500 nM | > 500 nM |  |
|  | Cc1nccn1CCn1nc(-c2cc3cc(O)ccc3[nH]2)c2c(N)ncnc21 [Compound 44] | < 100 nM |  |  | > 500 nM | > 500 nM | IC50 (PI3K δ): > 500 nM |
|  | CC(C)N1CCC(n2nc(-c3cc4cccc(O)c4[nH]3)c3c(N)ncnc32)CC1 [Compound 64] | < 25 nM | < 500 nM | < 500 nM | > 500 nM | > 500 nM |  |
|  | CC(C)n1nc(-c2ccc3c(N)noc3c2)c2c(N)ncnc21 [Compound 12] |  |  |  |  |  | EC50 (PC3): > 10000 nM |
| < 50 nM | CC(C)n1nc(-c2cc3cccc(O)c3[nH]2)c2c(N)ncnc21 [Compound 11] |  |  |  |  |  |  |
| < 50 nM | Nc1ncnc2c1c(-c1cc3cc(O)ccc3[nH]1)nn2C1CCCC1 [Compound 12] |  |  |  |  |  |  |
|  | Nc1nc2cc(-c3cn(C4CCOCC4)c4ncnc(N)c34)ccc2o1 [Compound 9] |  |  |  |  |  | EC50 (PC3): < 100 nM |
|  | CC(C)n1cc(-c2ccc3oc(N)nc3c2)c2c(N)ncnc21 [Compound 8] |  |  |  |  |  | EC50 (PC3): < 100 nM |
| > 500 nM | CC(C)n1nc(-c2cc3ccc(C(N)=O)cc3[nH]2)c2c(N)ncnc21 [Compound 25] |  |  |  |  |  |  |
|  | CC(C)N1CCC(n2nc(-c3cc4cc(O)cc(Cl)c4[nH]3)c3c(N)ncnc32)CC1 [Compound 56] | > 500 nM | > 500 nM |  | > 500 nM | > 500 nM |  |
|  | CC(C)n1nc(-c2cc3c(O)cccc3[nH]2)c2c(N)ncnc21 [Compound 37] | > 500 nM | < 500 nM | < 500 nM | < 500 nM |  |  |
| > 500 nM | COc1ccc2[nH]c(-c3nn(C(C)C)c4ncnc(N)c34)cc2c1 [Compound 5] |  |  |  |  |  |  |
| < 500 nM | Nc1ncnc2c1c(-c1cc3cc(O)ccc3[nH]1)nn2C1CCC1 [Compound 27] |  |  |  |  |  |  |
|  | CC(=O)Nc1nc2cc(-c3nn(C(C)C)c4ncnc(N)c34)ccc2o1 [Compound 2] |  |  |  |  |  | EC50 (PC3): < 1000 nM |

| Structure (SMILES) | IC50 (PC3) | IC50 (mTORC) | IC50 (PI3K γ; Table 2) | IC50 (PI3K δ; Table 2) | IC50 (PI3K α; Table 2) | IC50 (PI3K β) | also measured |
| --- | --- | --- | --- | --- | --- | --- | --- |
| CC(C)n1nc(-c2cc3c(Cl)ccc(O)c3[nH]2)c2c(N)ncnc21 [Compound 39] | > 500 nM | < 10 nM | > 500 nM | > 500 nM | > 500 nM |  |  |
| COCCn1nc(-c2cc3cc(O)ccc3[nH]2)c2c(N)ncnc21 [Compound 40] | > 500 nM | < 100 nM | > 500 nM |  | > 500 nM |  | IC50 (PI3K δ): > 500 nM |
| Nc1ncnc2c1c(-c1cc3cccc(O)c3[nH]1)nn2C1CCCC1 [Compound 36] | < 100 nM | < 10 nM | < 100 nM | < 500 nM | > 500 nM |  |  |
| CC(=O)N1CCC(n2nc(-c3cc4cc(O)ccc4[nH]3)c3c(N)ncnc32)CC1 [Compound 30] | > 500 nM | < 25 nM |  | > 500 nM |  | > 500 nM | IC50 (PI3K α): > 500 nM |
| Nc1ncnc2c1c(-c1cc3cc(O)ccc3[nH]1)nn2C1CCN(C(=O)C2CC2)CC1 [Compound 31] | > 500 nM | < 25 nM |  | < 500 nM |  | > 500 nM | IC50 (PI3K α): > 500 nM |
| Nc1ncnc2c1c(-c1cc3cc(O)ccc3[nH]1)nn2CCN1CCOCC1 [Compound 33] | > 500 nM | < 500 nM | > 500 nM | > 500 nM | > 500 nM |  |  |
| CCOC(=O)Cn1nc(-c2cc3cc(O)ccc3[nH]2)c2c(N)ncnc21 [Compound 28] | > 500 nM | < 500 nM |  | > 500 nM | > 500 nM | > 500 nM |  |
| CC(C)n1nc(-c2cc3cc(O)c(Cl)cc3[nH]2)c2c(N)ncnc21 [Compound 32] | > 500 nM | < 500 nM | > 500 nM | > 500 nM |  |  | IC50 (PI3K α): > 500 nM |
| Nc1ncnc2c1c(-c1cc3cc(O)ccc3[nH]1)nn2C1CCOCC1 [Compound 42] | > 500 nM | < 5 nM |  | < 100 nM |  | > 500 nM | IC50 (PI3K α): > 500 nM |
| Nc1ncnc2c1c(-c1cc3cc(O)ccc3[nH]1)nn2Cc1cccnc1 [Compound 38] | > 500 nM | < 500 nM |  | > 500 nM | > 500 nM |  | IC50 (PI3K γ): > 500 nM |
